Reference: PubChem BioAssay (NCI)
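In this assay, cells in 96-well plates receive the compound at five concentrations for 48 hours. Endpoints are linearly interpolated between the surrounding concentrations. GI50 is the concentration that inhibits growth by half. TGI marks complete inhibition of growth.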

How the values were obtained:
Test in all cases: NCI-60 cell line screen, 48 h
786-0 renal = test system: 786-0 renal
ACHN renal = test system: ACHN renal
COLO 205 colon = test system: COLO 205 colon
HL-60(TB) leukemia = test system: HL-60(TB) leukemia
K-562 leukemia = test system: K-562 leukemia
MOLT-4 leukemia = test system: MOLT-4 leukemia
OVCAR-5 ovarian = test system: OVCAR-5 ovarian
SN12C renal = test system: SN12C renal
SR leukemia = test system: SR leukemia
SK-OV-3 ovarian = test system: SK-OV-3 ovarian

Row | Compound | TGI (786-0 renal) [µM] | TGI (ACHN renal) [µM] | TGI (COLO 205 colon) [µM] | TGI (HL-60(TB) leukemia) [µM] | TGI (K-562 leukemia) [µM] | TGI (MOLT-4 leukemia) [µM] | TGI (OVCAR-5 ovarian) [µM] | TGI (SN12C renal) [µM] | TGI (SR leukemia) [µM] | GI50 (786-0 renal) [µM] | GI50 (ACHN renal) [µM] | GI50 (COLO 205 colon) [µM] | GI50 (HL-60(TB) leukemia) [µM] | GI50 (K-562 leukemia) [µM] | GI50 (MOLT-4 leukemia) [µM] | GI50 (OVCAR-5 ovarian) [µM] | GI50 (SK-OV-3 ovarian) [µM] | TGI (SK-OV-3 ovarian) [µM] | GI50 (SN12C renal) [µM] | GI50 (SR leukemia) [µM]
1 | CO/C(=N\N=C\c1cccc(Cl)c1)c1ccncc1 | > 10 | > 10 | > 10 | > 10 | > 10 | > 10 | > 10 | > 10 | > 10 | – | – | – | – | – | – | – | – | – | – | –
2 | Cc1ccc(/C(=N\N=C(N)N)c2ccccc2)cc1 | 12.1 | 14.8 | 0.714 | > 36.2 | > 100 | > 92.3 | 18.3 | 13.4 | 24.8 | 0.594 | 0.777 | 0.282 | 0.318 | 0.339 | 0.796 | 0.83 | 0.42 | 10.4 | 0.587 | 1.83
3 | CN1CCN(c2ccc(NC(=O)c3nc4ccc5[nH]ncc5c4c4c3CCCC4)cc2C(F)(F)F)CC1 | 1.52 | 1.55 | 1.68 | 2.1 | 2.11 | 3.08 | 8.39 | 1.65 | 2.81 | 0.841 | 0.857 | 0.84 | 0.969 | 0.968 | 1.09 | 1.5 | 1.48 | 5.25 | 0.895 | 0.9
4 | CCCc1c(CC)c(=N)c2ccccc2n1C | > 100 | > 100 | > 100 | > 100 | > 100 | > 100 | > 100 | > 100 | > 100 | > 100 | > 100 | > 100 | > 100 | 51.1 | > 100 | > 100 | > 100 | > 100 | 35.8 | > 100
5 | C=C(CCCCCCCCC)CC(=O)SCCNC(=O)CCNC(=O)C(O)C(C)(C)COP(=O)(O)OP(=O)(O)OCC1OC(n2cnc3c(N)ncnc32)C(O)C1OP(=O)(O)O (stereo unspecified) | > 100 | > 100 | > 100 | > 90.9 | > 31.6 | > 100 | > 100 | > 100 | > 100 | – | – | – | – | – | – | – | – | > 100 | – | –
6 | O=C(/C=C/C12c3ccccc3C(c3ccccc31)C1C(=O)N(c3ccccc3)C(=O)C12)c1ccccc1 (stereo unspecified) | > 100 | 4.08 | 4.85 | 8.66 | > 100 | > 100 | 5.02 | > 100 | > 100 | 2.89 | 1.63 | 2.11 | 1.02 | 1.39 | 1.23 | 1.91 | 28.3 | > 100 | 2.53 | 2.02
7 | COc1ccccc1/C=C1\CCC(CCN(C)C)(C2=CCCC2)C1=O (stereo unspecified) | 28.5 | 34.1 | 22.1 | 45.5 | 56.2 | 54.3 | 82.5 | 50.3 | 52.3 | – | – | – | – | – | – | – | – | – | – | –
8 | CCO/C=C/C(C)C1(C(=O)OCC)CCCCC1=O (stereo unspecified) | > 100 | > 100 | > 100 | > 100 | > 100 | > 100 | > 100 | > 100 | > 100 | – | – | – | – | – | – | – | – | > 100 | – | –
9 | CCC(=O)O[C@H]1CC[C@H]2[C@@H]3CC[C@H]4CC(=O)[C@H](C)C[C@]4(C)[C@H]3CC[C@]12C | > 100 | > 100 | > 100 | 24.3 | > 59.5 | > 85.6 | > 100 | > 100 | 21.8 | 43.3 | 38 | 28.3 | 5.57 | 5.51 | 9.11 | 74.8 | > 81.7 | > 100 | > 85.2 | 3.21
10 | Oc1ccc(C(c2ccc(O)cc2)c2ccc(Cl)cn2)cc1 | > 100 | 22.2 | 4.97 | 22 | > 100 | > 100 | > 100 | 0.331 | > 100 | 36.2 | 0.427 | 0.0416 | 3.56 | 13.5 | 23.7 | 17.6 | 18.6 | > 100 | 0.0408 | 29.5
11 | O=Cc1ccccc1OCCOc1cc(OCCOc2ccccc2C=O)c(OCCOc2ccccc2C=O)cc1OCCOc1ccccc1C=O | > 71.3 | > 92.5 | > 100 | > 100 | > 100 | > 100 | > 100 | > 100 | > 100 | – | – | – | – | – | – | – | – | > 100 | – | –
12 | O=C(c1ccc2ccccc2c1)c1c(C(F)(F)F)n([O-])c2cc(F)c(F)cc2[n+]1=O | 3.23 | 4.16 | – | 3.55 | 1.44 | 2.68 | 4.4 | – | 3.18 | 1.74 | 2.03 | – | 1.37 | 0.314 | 0.749 | 2.01 | 14.5 | 27.9 | – | 0.45
13 | COc1cc(CCN)c2c(c1OC)SSSSS2 | 2.22 | 1.61 | 0.0783 | 5.09 | > 100 | > 100 | 1.48 | 2.38 | 0.679 | 1.04 | 0.45 | 0.0184 | 1.57 | 0.629 | 0.0646 | 0.591 | – | – | 1.13 | 0.113
14 | COc1cc(/C=C\c2ccccc2)cc(OC)c1OC | > 52.8 | > 78.5 | > 20.4 | 6.34 | > 43.2 | 17.2 | 47.3 | 48.6 | 26.7 | – | – | – | – | – | – | – | – | – | – | –
